Experimental data reported in patent US20140377278A1, “Compositions and Methods for Assessing and Treating Inflammatory Diseases and Disorders” (Yale University, priority 2012, published 2014).

Test system: ASC^−/− mice
Experiment: DSS colitis in ASC-deficient mice after oral antimicrobial pretreatment
Type: in vivo
Conditions: oral antiviral, antifungal or antiparasitic treatment before DSS; weight loss compared (FIGS. 13C-13E)

| Compound | severity of colitis in ASC-deficient mice |
| --- | --- |
| C[C@@H]1[C@H](O)[C@@H](C)/C=C/C=C/C=C/C=C/C=C/C=C/C=C/[C@H](O[C@@H]2O[C@H](C)[C@@H](O)[C@H](N)[C@@H]2O)C[C@@H]2O[C@](O)(C[C@@H](O)C[C@@H](O)[C@H](O)CC[C@@H](O)C[C@@H](O)CC(=O)O[C@H]1C)C[C@H](O)[C@H]2C(=O)O [amphotericin, amphotericin B] | None of these treatments altered the severity of colitis |
| Nc1nc(O)c2ncn(COC(CO)CO)c2n1 [gancyclovir] | None of these treatments altered the severity of colitis |
